{"source": "patent US9857357B2", "about": "“Method of screening modulator of XKR8” (KYOTO UNIVERSITY, priority 2012, dated 2018)", "format_in_all_cases": "cell-based, human", "key": {"[1]": {"system": "Xkr8 mRNA in PLB-985 cells", "assay": "Real-time RT-PCR of Xkr8 mRNA in DAC-treated PLB-985 cells", "protocol": "To treat human PLB-985 cells with 5-aza-2′-deoxycytidine (DAC, Sigma-Aldrich), 1.0×10^6 cells in 10 ml of RPMI containing 10% FCS were incubated with 0.5 μM DAC for up to 7 days. Since DAC is an unstable compound, the medium containing DAC was changed every 24 hours. After DAC treatment, the cells were divided into three portions: one portion for FACS to analyze the PtdSer exposure, one for real-time RT-PCR for Xkr8 gene expression, and one for the methylation-specific PCR analysis^67. For the bisulfite genomic sequencing, the DNA was modified with bisulfite using a kit (MethyEasy Xceed, Human Genetic Signatures). In brief, 3 μg DNA was denatured by incubation at 37° C. for 15 min in 0.3 M NaOH, and treated with sodium bisulfite according to the protocol provided by the supplier except that the incubation time was changed to 90 min. The modified DNA was denatured at 95° C. for 20 min, and amplified by PCR using primers specific for the treated DNA ([…] (SEQ ID NO; 20) and […] (SEQ ID NO; 21)). PCR was carried out with EpiTaq HS polymerase (Takara Bio) for 7-40 cycles, and the product was cloned in a pGEM-Teasy vector for sequencing. […]\nThe specific mRNA was quantified at the point where the LightCycler System detected the upstroke of the exponential phase of PCR accumulation with the respective linearized plasmid DNA as reference."}, "[2]": {"system": "PLB-985 cells", "assay": "PtdSer exposure (Cy5-Annexin V staining) of DAC-treated PLB-985 cells after UV irradiation", "settings": "PLB-985 cells treated with DAC for five days, Cy5-Annexin V and PI", "protocol": "Apoptosis was induced by treating cells with FasL or staurosporine, or exposing them to UV. In brief, 5×10^5 cells in 500 μl of culture medium were incubated at 37° C. with 10-400 units/ml hFasL for 1.2-2.0 h or with 10 μM staurosporine for 1.5-4.0 h. For UV exposure, 1×10^6 cells in 2 ml of PBS were exposed to 500-2000 J/m UV radiation (254 nm) in a StrataLinker UV oven (Stratagene), and incubated at 37° C. for 1.5-2.0 h in 4 ml of RPMI1640 containing 10% FCS. To monitor Ca^2÷-ionophore-induced PtdSer exposure, cells (5×10^5 cells) in 500 μl of Annexin V staining buffer (10 mM Hepes-NaOH buffer [pH7.4] containing 140 mM NaCl and 2.5 mM CaCl2) were incubated at 20° C. for 3 min, treated with 3.0-10 μM A23187, and analyzed with FACSAria at 20° C.\nTo detect PtdSer and PtdEtn exposed on the cell surface, cells were stained on ice for 15 min with 2500-5000-fold diluted Cy5-Annexin V (Biovision) or 800-fold diluted-biotin-Ro09-0198^66 followed by 1.0 μg/ml APC-streptavidin in Annexin V staining buffer in the presence of 5 μg/ml propidium iodide (PI), and analyzed by FACSAria or FACSCalibur (BD Biosciences). […] Aliquots (150 μl) were mixed with 150 μl HBSS containing 5 μg/ml fatty-acid free BSA (Sigma-Aldrich) and 500 nM Sytoxblue (Molecular Probes), and analyzed by FACSAria. […]"}, "[3]": {"system": "CpG sites of the hXkr8 gene promoter in PLB-985 cells", "assay": "Bisulfite genomic sequencing of CpG sites between -239 and +7 of the hXkr8 gene", "settings": "0.5 μM DAC, day 7", "protocol": "To treat human PLB-985 cells with 5-aza-2′-deoxycytidine (DAC, Sigma-Aldrich), 1.0×10^6 cells in 10 ml of RPMI containing 10% FCS were incubated with 0.5 μM DAC for up to 7 days. Since DAC is an unstable compound, the medium containing DAC was changed every 24 hours. After DAC treatment, the cells were divided into three portions: one portion for FACS to analyze the PtdSer exposure, one for real-time RT-PCR for Xkr8 gene expression, and one for the methylation-specific PCR analysis^67. For the bisulfite genomic sequencing, the DNA was modified with bisulfite using a kit (MethyEasy Xceed, Human Genetic Signatures). In brief, 3 μg DNA was denatured by incubation at 37° C. for 15 min in 0.3 M NaOH, and treated with sodium bisulfite according to the protocol provided by the supplier except that the incubation time was changed to 90 min. The modified DNA was denatured at 95° C. for 20 min, and amplified by PCR using primers specific for the treated DNA ([…] (SEQ ID NO; 20) and […] (SEQ ID NO; 21)). PCR was carried out with EpiTaq HS polymerase (Takara Bio) for 7-40 cycles, and the product was cloned in a pGEM-Teasy vector for sequencing."}}, "data": [{"smiles": "Nc1ncn([C@H]2C[C@H](O)[C@@H](CO)O2)c(=O)n1", "note": "[DAC, 5-aza-2′-deoxycytidine]", "values": [{"measurement": "Change of Xkr8 mRNA level", "setting": "[1]; 0.5 μM DAC for up to 7 days", "result": "gradually increased"}, {"measurement": "Xkr8 mRNA level relative to that in Namalwa cells", "setting": "[1]; 0.5 μM DAC, day 7", "result": "about 91%"}, {"measurement": "PtdSer exposure in response to UV irradiation", "setting": "[2]", "result": "gained the ability to expose PtdSer"}, {"measurement": "Methylation status of the 23 CpG sites between -239 and +7", "setting": "[3]", "result": "highly demethylated"}]}]}
